We go through 21 compounds from patent US8114867B2, “Oxazolidinone antibiotic derivatives” (Actelion Pharmaceuticals Ltd, priority 2007, dated 2012).

The term MIC denotes the smallest concentration in the dilution series that meets the test's criterion for growth inhibition.

≈ marks a conversion by molar mass, not a printed value.

The assay concerns S. aureus 29213. The experiment in a line: MIC by broth microdilution (NCCLS), S. aureus 29213. The assay is classed as cell-based. The following applies: Staphylococcus aureus, strain S. aureus 29213, cation-adjusted Mueller-Hinton Broth, pH 7.2-7.3. The method, then:
These assays have been performed following the description given in “Methods for dilution Antimicrobial Susceptibility Tests for Bacteria that Grow Aerobically, 4th ed.; Approved standard: NCCLS Document M7-A4; National Committee for Clinical Laboratory Standards: Villanova, Pa., USA, 1997”. Minimal inhibitory concentrations (MICs; mg/l) were determined in cation-adjusted Mueller-Hinton Broth (BBL) by a microdilution method following NCCLS guidelines (National Committee for Clinical Laboratory Standards. Methods for Dilution Antimicrobial Susceptibility). The pH of the test medium was 7.2-7.3.
Background: Dilution methods test growth across graded concentrations, often in twofold steps.
As to `COc1ccc2nccc(CCN(C)C[C@@H](O)[C@H]3CN(c4ccc5c(c4)OCCO5)C(=O)O3)c2n1` (relative stereo) [Example 99, (R*)-3-(2,3-dihydro-benzo[1,4]dioxin-6-yl)-5-((R*)-1-hydroxy-2-{[2-(6-methoxy-[1,5]naphthyridin-4-yl)-ethyl]-methyl-amino}-ethyl)-oxazolidin-2-one], the MIC was not above 0.063 µg/mL.

For `COc1cnc2cccc(C(O)CN(C)C[C@@H](O)[C@H]3CN(c4ccc5c(c4)OCCO5)C(=O)O3)c2n1` (relative stereo) [Example 100, (R*)-3-(2,3-dihydro-benzo[1,4]dioxin-6-yl)-(R*)-5-(1-hydroxy-2-{[(RS)-2-hydroxy-2-(3-methoxy-quinoxalin-5-yl)-ethyl]-methyl-amino}-ethyl)-oxazolidin-2-one], the MIC is not above 0.063 µg/mL. The figure for `COc1ccc2ncc(F)c(CNCC[C@@H](N)[C@@H]3CN(c4ccc5c(c4)OCCO5)C(=O)O3)c2n1` (relative stereo) [Example 107, (S*)-5-{(R*)-1-amino-3-[(3-fluoro-6-methoxy-[1,5]naphthyridin-4-ylmethyl)-amino]-propyl}-3-(2,3-dihydro-benzo[1,4]dioxin-6-yl)-oxazolidin-2-one] is not above 0.063 µg/mL. The figure for `COc1ccc2nccc(CCCC[C@@H](O)[C@H]3CN(c4ccc5c(c4)OCCO5)C(=O)O3)c2n1` (relative stereo) [Example 111, (R*)-3-(2,3-dihydro-benzo[1,4]dioxin-6-yl)-5-[(R*)-1-hydroxy-5-(6-methoxy-[1,5]naphthyridin-4-yl)-pentyl]-oxazolidin-2-one] is not above 0.063 µg/mL; for `COc1cnc2cccc(/C=C/C(=O)NC[C@@H]3CN(c4ccc5c(c4)OCCO5)C(=O)O3)c2n1` [Example 5, (E)-N-[(R)-3-(2,3-dihydro-benzo[1,4]dioxin-6-yl)-2-oxo-oxazolidin-5-ylmethyl]-3-(3-methoxy-quinoxalin-5-yl)-acrylamide] it is not above 0.063 µg/mL; for `CCc1ccc(N2C[C@@H](CN(C)C(=O)/C=C/c3ccnc4ccc(OC)nc34)OC2=O)cc1` [Example 14, (E)-N-[(R)-3-(4-ethyl-phenyl)-2-oxo-oxazolidin-5-ylmethyl]-3-(6-methoxy-[1,5]naphthyridin-4-yl)-N-methyl-acrylamide] it is not above 0.063 µg/mL. With `N#Cc1ccc2cccc(/C=C/C(=O)NC[C@@H]3CN(c4ccc5c(c4)OCCO5)C(=O)O3)c2n1` [Example 16, (E)-3-(2-cyano-quinolin-8-yl)-N-[(R)-3-(2,3-dihydro-benzo[1,4]dioxin-6-yl)-2-oxo-oxazolidin-5-ylmethyl]-acrylamide] the figure was 0.125 µg/mL (≈ 0.274 µM). Compound `COc1ccc2nccc(/C=C/C(=O)N(C)C[C@@H]3CN(c4ccc(Br)c(F)c4)C(=O)O3)c2n1` [Example 22, (E)-N-[(R)-3-(4-bromo-3-fluoro-phenyl)-2-oxo-oxazolidin-5-ylmethyl]-3-(6-methoxy-[1,5]naphthyridin-4-yl)-N-methyl-acrylamide] returned an MIC not above 0.063 µg/mL. The figure for `COc1cnc2cccc(CCC(=O)NC[C@@H]3CN(c4ccc5c(c4)NC(=O)CS5)C(=O)O3)c2c1` [Example 28, 3-(3-methoxy-quinolin-5-yl)-N-[(R)-2-oxo-3-(3-oxo-3,4-dihydro-2H-benzo[1,4]thiazin-6-yl)-oxazolidin-5-ylmethyl]-propionamide] is not above 0.063 µg/mL; for `COc1ccc2nccc(/C=C/CNC[C@@H]3CN(c4ccc5c(c4)OCCO5)C(=O)O3)c2n1` [Example 29, (R)-3-(2,3-dihydro-benzo[1,4]dioxin-6-yl)-5-{[(E)-3-(6-methoxy-[1,5]naphthyridin-4-yl)-allylamino]-methyl}-oxazolidin-2-one] it is not above 0.063 µg/mL. With `COc1cnc2cccc(CCCNC[C@@H]3CN(c4ccc5c(c4)NC(=O)CS5)C(=O)O3)c2c1` [Example 35, 6-((R)-5-{[3-(3-methoxy-quinolin-5-yl)-propylamino]-methyl}-2-oxo-oxazolidin-3-yl)-4H-benzo[1,4]thiazin-3-one] the figure was not above 0.063 µg/mL. The figure for `CCC(=O)N(CCCc1ccnc2ccc(OC)nc12)C[C@@H]1CN(c2ccc3c(c2)NC(=O)CS3)C(=O)O1` [Example 38, N-[3-(6-methoxy-[1,5]naphthyridin-4-yl)-propyl]-N-[(R)-2-oxo-3-(3-oxo-3,4-dihydro-2H-benzo[1,4]thiazin-6-yl)-oxazolidin-5-ylmethyl]-propionamide] is not above 0.063 µg/mL; for `COc1cnc2cccc(CCCN(C)C[C@@H]3CN(c4ccc(C)c(F)c4)C(=O)O3)c2c1` [Example 43, (R)-3-(3-fluoro-4-methyl-phenyl)-5-({[3-(3-methoxy-quinolin-5-yl)-propyl]-methyl-amino}-methyl)-oxazolidin-2-one] it is not above 0.063 µg/mL.

As to `COc1ccc2ncc(F)c(C(O)CCCCC3CN(c4ccc5c(c4)OCCO5)C(=O)O3)c2n1` (stereo not drawn) [Example 62, 3-(2,3-dihydro-benzo[1,4]dioxin-6-yl)-5-[5-(3-fluoro-6-methoxy-[1,5]naphthyridin-4-yl)-5-hydroxy-pentyl]-oxazolidin-2-one], the MIC was not above 0.063 µg/mL. `COc1ccc2nccc(NC(=O)CNC[C@@H]3CN(c4ccc5c(c4)NC(=O)CS5)C(=O)O3)c2n1` [Example 91, N-(6-methoxy-[1,5]naphthyridin-4-yl)-2-{[(R)-2-oxo-3-(3-oxo-3,4-dihydro-2H-benzo[1,4]thiazin-6-yl)-oxazolidin-5-ylmethyl]-amino}-acetamide]: the minimum inhibitory concentration (MIC) is not above 0.063 µg/mL.

`COc1ccc2nccc(CCCCNC[C@@H]3CN(c4ccc5c(c4)NC(=O)CS5)C(=O)O3)c2n1` [Example 113, 6-((R)-5-{[4-(6-methoxy-[1,5]naphthyridin-4-yl)-butylamino]-methyl}-2-oxo-oxazolidin-3-yl)-4H-benzo[1,4]thiazin-3-one] yielded an MIC not above 0.063 µg/mL. As for `COc1ccc2nccc(CCCCC[C@@H]3CN(c4ccc5c(c4)NC(=O)CS5)C(=O)O3)c2n1` [Example 125, 6-{(R)-5-[5-(6-methoxy-[1,5]naphthyridin-4-yl)-pentyl]-2-oxo-oxazolidin-3-yl}-4H-benzo[1,4]thiazin-3-one], the MIC was not above 0.063 µg/mL. The figure for `COc1ccc2ncc(F)c(CCCN(C[C@H](O)CO)C[C@@H]3CN(c4ccc5c(c4)OCCO5)C(=O)O3)c2n1` [Example 135, (R)-3-(2,3-dihydro-benzo[1,4]dioxin-6-yl)-5-({((S)-2,3-dihydroxy-propyl)-[3-(3-fluoro-6-methoxy-[1,5]naphthyridin-4-yl)-propyl]-amino}-methyl)-oxazolidin-2-one] is not above 0.063 µg/mL; for `COc1ccc2ncc(F)c(CN(CCO)CCC[C@@H]3CN(c4ccc5c(c4)NC(=O)CO5)C(=O)O3)c2n1` [Example 179, 6-((R)-5-{3-[(3-fluoro-6-methoxy-[1,5]naphthyridin-4-ylmethyl)-(2-hydroxy-ethyl)-amino]-propyl}-2-oxo-oxazolidin-3-yl)-4H-benzo[1,4]oxazin-3-one] it is not above 0.063 µg/mL. Take `COc1ccc2ncc(F)c(CNC[C@H](O)[C@@H](O)[C@@H]3CN(c4ccc5c(c4)OCCO5)C(=O)O3)c2c1` [Example 181, (S)-3-(2,3-dihydro-benzo[1,4]dioxin-6-yl)-5-{(1R,2S)-3-[(3-fluoro-6-methoxy-quinolin-4-ylmethyl)-amino]-1,2-dihydroxy-propyl}-oxazolidin-2-one]: the MIC is not above 0.063 µg/mL. With `COc1ccc2nccc(NCCNC[C@@H]3CN(c4ccc5c(c4)NC(=O)CS5)C(=O)O3)c2n1` [Example 201, 6-((R)-5-{[2-(6-methoxy-[1,5]naphthyridin-4-ylamino)-ethylamino]-methyl}-2-oxo-oxazolidin-3-yl)-4H-benzo[1,4]thiazin-3-one] the figure was not above 0.063 µg/mL.
